Reference: the supplement of paper PMC10307832

Columns and labels:
Test in all cases: relative viability (nuclei count vs DMSO), 5 days (fraction); higher = more cells survive
[1] = test system: NCI-H1975
How it was run: (§1)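 Dosing by pin tool came one day after lung cancer cell lines were seeded in 1536-well plates, using either one drug or a fixed anchor-drug dose plus five library-drug doses (not always all listed) in √10 steps. After 5 days, nuclei were counted on 4× images. Relative viability is treated-well nuclei count divided by vehicle-well nuclei count, and values are medians of duplicate plates.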

[2] = test system: SW 900
How it was run: as §1

[3] = test system: LU99A
How it was run: as §1

[4] = test system: HARA
How it was run: as §1

[5] = test system: HCC-827
How it was run: as §1

[6] = test system: HCC-44
How it was run: as §1

[7] = test system: NCI-H2342
How it was run: as §1

[8] = test system: LXF-289
How it was run: as §1

[9] = test system: NCI-H2023
How it was run: as §1

[10] = test system: HCC-366
How it was run: as §1

[11] = test system: LK-2
How it was run: as §1

[12] = test system: PC-14
How it was run: as §1

[13] = test system: HCC-15
How it was run: as §1

[14] = test system: NCI-H647
How it was run: as §1

[15] = test system: COR-L 105
How it was run: as §1

[16] = test system: COR-L23
How it was run: as §1

[17] = test system: NCI-H838
How it was run: as §1

[18] = test system: HOP-62
How it was run: as §1

[19] = test system: NCI-H2085
How it was run: as §1

[20] = test system: CAL-12T
How it was run: as §1

[21] = test system: NCI-H522
How it was run: as §1

[22] = test system: LC-2-ad
How it was run: as §1

[23] = test system: NCI-H1944
How it was run: as §1

## Oc1nc(-c2ccc(C(F)(F)F)cc2)nc2c1CSCC2 [XAV939] + CC(=O)c1c(C)c2cnc(Nc3ccc(N4CCNCC4)cn3)nc2n(C2CCCC2)c1=O [Palbociclib] (partner 0.5 µM)
[1]; first compound 0.08 µM
  relative viability: 0.54
[1]; first compound 0.253 µM
  relative viability: 0.483
[1]; first compound 0.8 µM
  relative viability: 0.618
[1]; first compound 2.53 µM
  relative viability: 0.508
[2]; first compound 0.253 µM
  relative viability: 0.539
[2]; first compound 0.8 µM
  relative viability: 0.56
[2]; first compound 2.53 µM
  relative viability: 0.285
[3]; first compound 0.08 µM
  relative viability: 0.477
[3]; first compound 0.253 µM
  relative viability: 0.406
[3]; first compound 0.8 µM
  relative viability: 0.433
[3]; first compound 2.53 µM
  relative viability: 0.424
[4]; first compound 0.08 µM
  relative viability: 0.334
[4]; first compound 0.253 µM
  relative viability: 0.22
[4]; first compound 0.8 µM
  relative viability: 0.234
[4]; first compound 2.53 µM
  relative viability: 0.242
[5]; first compound 0.08 µM
  relative viability: 0.571
[5]; first compound 0.253 µM
  relative viability: 0.459
[5]; first compound 0.8 µM
  relative viability: 0.584
[5]; first compound 2.53 µM
  relative viability: 0.517
[6]; first compound 0.08 µM
  relative viability: 0.899
[6]; first compound 0.253 µM
  relative viability: 0.842
[6]; first compound 0.8 µM
  relative viability: 0.888
[6]; first compound 2.53 µM
  relative viability: 0.807
[7]; first compound 0.08 µM
  relative viability: 0.555
[7]; first compound 0.253 µM
  relative viability: 0.464
[7]; first compound 0.8 µM
  relative viability: 0.468
[7]; first compound 2.53 µM
  relative viability: 0.467
[8]; first compound 0.08 µM
  relative viability: 0.565
[8]; first compound 0.253 µM
  relative viability: 0.571
[8]; first compound 0.8 µM
  relative viability: 0.588
[8]; first compound 2.53 µM
  relative viability: 0.632
[9]; first compound 0.08 µM
  relative viability: 0.405
[9]; first compound 0.253 µM
  relative viability: 0.291
[9]; first compound 0.8 µM
  relative viability: 0.328
[9]; first compound 2.53 µM
  relative viability: 0.295
[10]; first compound 0.08 µM
  relative viability: 0.444
[10]; first compound 0.253 µM
  relative viability: 0.334
[10]; first compound 0.8 µM
  relative viability: 0.352
[10]; first compound 2.53 µM
  relative viability: 0.261
[11]; first compound 0.08 µM
  relative viability: 0.526
[11]; first compound 0.253 µM
  relative viability: 0.626
[11]; first compound 0.8 µM
  relative viability: 0.609
[11]; first compound 2.53 µM
  relative viability: 0.545
[12]; first compound 0.08 µM
  relative viability: 0.723
[12]; first compound 0.253 µM
  relative viability: 0.47
[12]; first compound 0.8 µM
  relative viability: 0.451
[12]; first compound 2.53 µM
  relative viability: 0.375
[13]; first compound 0.08 µM
  relative viability: 0.709
[13]; first compound 0.253 µM
  relative viability: 0.68
[13]; first compound 0.8 µM
  relative viability: 0.721
[13]; first compound 2.53 µM
  relative viability: 0.705
[14]; first compound 0.08 µM
  relative viability: 0.406
[14]; first compound 0.253 µM
  relative viability: 0.298
[14]; first compound 0.8 µM
  relative viability: 0.277
[14]; first compound 2.53 µM
  relative viability: 0.293
[15]; first compound 0.08 µM
  relative viability: 0.403
[15]; first compound 0.253 µM
  relative viability: 0.399
[15]; first compound 0.8 µM
  relative viability: 0.43
[15]; first compound 2.53 µM
  relative viability: 0.397
[16]; first compound 0.08 µM
  relative viability: 0.291
[16]; first compound 0.253 µM
  relative viability: 0.261
[16]; first compound 0.8 µM
  relative viability: 0.237
[16]; first compound 2.53 µM
  relative viability: 0.249
[17]; first compound 0.08 µM
  relative viability: 0.217
[17]; first compound 0.253 µM
  relative viability: 0.203
[17]; first compound 0.8 µM
  relative viability: 0.179
[17]; first compound 2.53 µM
  relative viability: 0.148
[18]; first compound 0.08 µM
  relative viability: 0.467
[18]; first compound 0.253 µM
  relative viability: 0.4
[18]; first compound 0.8 µM
  relative viability: 0.378
[18]; first compound 2.53 µM
  relative viability: 0.313
[19]; first compound 0.08 µM
  relative viability: 0.489
[19]; first compound 0.253 µM
  relative viability: 0.435
[19]; first compound 0.8 µM
  relative viability: 0.491
[19]; first compound 2.53 µM
  relative viability: 0.451
[20]; first compound 0.08 µM
  relative viability: 0.465
[20]; first compound 0.253 µM
  relative viability: 0.342
[20]; first compound 0.8 µM
  relative viability: 0.263
[20]; first compound 2.53 µM
  relative viability: 0.209
[21]; first compound 0.08 µM
  relative viability: 1.05
[21]; first compound 0.253 µM
  relative viability: 0.884
[21]; first compound 0.8 µM
  relative viability: 0.973
[21]; first compound 2.53 µM
  relative viability: 1.03
[22]; first compound 0.08 µM
  relative viability: 0.502
[22]; first compound 0.253 µM
  relative viability: 0.397
[22]; first compound 0.8 µM
  relative viability: 0.462
[22]; first compound 2.53 µM
  relative viability: 0.478
[23]; first compound 0.08 µM
  relative viability: 0.347
[23]; first compound 0.253 µM
  relative viability: 0.337
[23]; first compound 0.8 µM
  relative viability: 0.34
[23]; first compound 2.53 µM
  relative viability: 0.267
